According to US20170067909A1, “ASSAY-READY RECOMBINANT CELLS TRANSIENTLY OVEREXPRESSING GENES ENCODING DRUG TRANSPORTER PROTEINS AND/OR DRUG METABOLIZING ENZYMES” (Corning Incorporated, priority 2012, published 2017):

What was measured:
OATP1B1*1a = molecular target: T1, OATP1B1*1a (Homo sapiens, UniProt Q9Y6L6); conditions: read-out: Km, Literature Report; HEK293 cells; P. Sharma, et al. Xenobiotica 40:24. 2010; cited from earlier work
T1 sequence (Q9Y6L6 1-691): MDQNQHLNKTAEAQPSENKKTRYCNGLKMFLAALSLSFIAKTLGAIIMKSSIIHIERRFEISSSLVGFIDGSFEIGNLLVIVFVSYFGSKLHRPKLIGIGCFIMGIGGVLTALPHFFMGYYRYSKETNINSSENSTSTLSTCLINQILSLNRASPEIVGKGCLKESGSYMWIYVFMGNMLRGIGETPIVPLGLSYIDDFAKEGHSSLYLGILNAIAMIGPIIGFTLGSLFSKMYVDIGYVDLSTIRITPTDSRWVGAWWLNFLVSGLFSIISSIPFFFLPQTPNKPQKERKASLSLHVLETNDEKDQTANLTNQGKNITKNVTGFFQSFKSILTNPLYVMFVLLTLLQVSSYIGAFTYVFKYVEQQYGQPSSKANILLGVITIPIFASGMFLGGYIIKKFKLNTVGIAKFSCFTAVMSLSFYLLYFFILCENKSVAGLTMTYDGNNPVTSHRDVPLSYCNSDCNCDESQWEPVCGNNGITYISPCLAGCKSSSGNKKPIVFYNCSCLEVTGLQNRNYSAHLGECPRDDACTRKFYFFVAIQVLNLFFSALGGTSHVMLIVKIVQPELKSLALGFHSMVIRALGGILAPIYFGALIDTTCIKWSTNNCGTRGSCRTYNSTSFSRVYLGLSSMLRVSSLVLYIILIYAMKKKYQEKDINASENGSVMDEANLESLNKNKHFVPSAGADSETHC

[1] = molecular target: T2, Organic Anion-Transporting Polypeptide 1B1 (Homo sapiens, UniProt Q9Y6L6); assay: Positive control plated (adherent) assay, Corning TransportoCells OATP1B1*1a; format: in vitro ADME; conditions: PC: Plated Assay, Seeded at 250k/well (24-well), assay at 48 hours; 5 uM FMTX, 10 min
T2 construct: host or cells: HEK293 cells, gene delivered by electroporation
T2 sequence (Q9Y6L6 1-691): T1 sequence (Q9Y6L6 1-691)
Description: A positive control was provided via an adherent assay for characterizing the activity of a drug transporter protein in cryopreserved, Corning® TransportoCells™. Corning® TransportoCells™ transiently transfected with the gene OATP1B1*1a were obtained from Corning Life Sciences (Cat. No. 354859). In order to obtain suitable expression of the Organic Anion-Transporting Polypeptide 1B1 encoded by OATP1B1*1a, the Corning® TransportoCells™ were thawed, cultured, and harvested. […] The cells were cultured via plating in a 24-well PDL-Treated Plate (cell density of 250K cells/well; obtained from Corning Life Sciences) with plating medium for 48 hours at 37° C. and 8% CO2. The plating medium is detailed in Table 16. After 24 hours, cells were refed by 400 uL plating media supplemented with 5 mM sodium butyrate (obtained from Sigma). After 48 hours, cells were washed three times using 0.4 mL prewarmed HBSS (Corning). Then 0.3 mL substrate solution containing 5 uM FMTX were added to the cells and the cells were incubated for 10 min at 37 degree. After 10 min incubation time, the cells were washed 3 times using 0.4 mL cold HBSS. The cells were lysed and subjected to the BCA protein analysis and/or fluorescence analysis to characterize the activity of Organic Anion-Transporting Polypeptide 1B1.

[2] = molecular target: T2, Organic Anion-Transporting Polypeptide 1B1; assay: Suspension assay, centrifugation method, Corning TransportoCells OATP1B1*1a; format: in vitro ADME; conditions: 5× substrate solution containing 25 μM, 10 minutes at 37° C., 600 k cells/well
Description: In this experiment, a suspension assay for characterizing the activity of a drug transporter protein in cryopreserved, Corning® TransportoCells™ was developed. More specifically, the use of a centrifugation method versus a vacuum manifold for separating unreacted substrate in characterizing the activity of Organic Anion-Transporting Polypeptide 1B1 was investigated. Corning® TransportoCells™ transiently transfected with the gene OATP1B1*1a were obtained from Corning Life Sciences (Cat. No. 354859). In the Corning® TransportoCells™, the gene OATP1B1*1a was delivered into HEK293 cells via electroporation and the HEK293 cells were recovered and cryopreserved 1 hour post-electroporation. In order to obtain suitable expression of the Organic Anion-Transporting Polypeptide 1B1 encoded by OATP1B1*1a, the Corning® TransportoCells™ were thawed, cultured, and harvested.
The cells were cultured in T-175 Vented-Cap Culture Flasks with Poly-D-Lysine (hereinafter, “PDL”; available from Corning Life Sciences, Cat. No. 354539) with plating medium for 48 hours at 37° C. and 8% CO2. The plating medium is detailed in Table 16. After 24 hours, sodium butyrate (obtained from Sigma) was added to the cells to reach final 5 mM. After 48 hours, the cells were rinsed twice with Phosphate-Buffered Saline (hereinafter, “PBS”, obtained from Corning).
The cells were then harvested with 0.05% Trypsin (obtained from Sigma) and washed once with Hank's Balanced Salt Solution (hereinafter, “HBSS”) buffer (with Ca^2+ and Mg^2+, obtained from Corning). Then, the cells were resuspended in HBSS (obtained from Corning) to a final cell density of 3×10^6 cells/ml. Two suspension assay experiments were then performed to characterize the activity of Organic Anion-Transporting Polypeptide 1B1 in the Corning® TransportoCells™.
In a first suspension assay experiment, use of a centrifugation method was investigated to separate excess substrate and cells. Referencing FIG. 20, in the first suspension assay experiment, the resuspended Corning® TransportoCells™ were aliquotted (200 μl per well at a density of 600 k cells/well) into either a Corning® 96 Well Clear Round Bottom TC-Treated Microplate (available from Corning Life Sciences, Cat. No. 3799) or a Corning® 96 Well Clear V-Bottom TC-Treated Microplate (available from Corning Life Sciences, Cat. No. 3894). […] The cells were then incubated for 10 minutes at 37° C. After the incubation time, the reaction was stopped by adding ice cold HBSS buffer (50 μl) to the cells and placing the microplates on ice. Then, the microplates were centrifuged at 3000 g for 1 minute at 4° C. […] The cell lysis was then subjected to the appropriate protein analysis and/or fluorescence analysis to characterize the activity of Organic Anion-Transporting Polypeptide 1B1.

[3] = HEK-293 cells overexpressing the transporter

For `C[C@]12CC[C@@H]3c4ccc(O)cc4CC[C@H]3[C@@H]1CC[C@@H]2O[C@@H]1O[C@H](C(=O)O)[C@@H](O)[C@H](O)[C@H]1O` [E17βG], the Km (OATP1B1*1a) is listed as 6.3 µM, the Km (dog Oatp1b4) is listed as 12.2 ± 0.6 µM and the “uptake of substrate (in words)” value (dog Oatp1b4; [3]) is listed as “significant uptake”. The “uptake of substrate (in words)” value (monkey Oatp1b1; [3]) was “significant uptake” and the Km (monkey Oatp1b1; incubation of 5 minutes, Michaelis-Menten kinetics) was 6.3 ± 1.4 µM.
With fluorescein methotrexate [FMTX] the “Uptake Activity OATP1B1” value [1] was 1.06 pmol/mg/min, the “Uptake Ratio” value [1] was 30.6 and the “Uptake Activity OATP1B1” value ([2]; Round Bottom) was 0.38 pmol/mg/min. For the same compound, the “Uptake Ratio” value ([2]; Round Bottom) was 10.9, the “Uptake Activity OATP1B1” value ([2]; V-Bottom) was 1.04 pmol/mg/min and the “Uptake Ratio” value ([2]; V-Bottom) was 102.3.
